Laboratory results reported in patent US6821959B1, “Antibiotic-natural polysaccharide polymer adducts” (Istituto Biochimico Pavese Pharma S.p.A, priority 1999, dated 2004).
Converted amounts (≈) assume the structure as drawn.

Tests used:
[1] = test system: Staphylococcus aureus ATCC 6538 P (strain A); experiment: Inhibition halos, diffusion method, strain A; format: cell-based
Source text: (§1) The inhibition halos were obtained through the diffusion method (Farmacopea Ufftclale Italiana, IX ed., page 315), using a culture medium “Mueller-Hinton Medium Difco, with a low thymine and thymidine content, in sterile Petri plates (9 cm in diameter), with Tryptic Soy Broth (Difco).
(§2) For the sensitivity test, both paper filtering disks, imbibed of a fixed quantity of antibiotic and the relevant adduct disks, having the same total dose, but a lower molar ratio of the active principle were prepared.
(§3) To produce a bacterial growth, a strain of Staphylococcus aureus ATCC 6538 P (strain A) and two strains of field Staphylococcus aureus (strains B and C) were used.
(§4) The culture broths were prepared placing a loop of bacterial coating of an agar culture (12 h) in a test tube containing sterile Tryptic Soy Broth (5 ml), successively incubated at 37° C. for 4 hours.
(§5) When necessary, the suspensions have been diluted with sterile water in order to obtain a turbidity similar to the reference standard (0.5 McFarland). The Mueller-Hinton culture medium (150 ml) was sterilized at 121° C. for 15 minutes; a part of it was positioned on sterile Petri plates (9 cm in diameter), was let to solidify, while another part was cooled at approx. 45° C., was inoculated with the bacterial suspensions as above prepared (15 ml) and poured onto the solidified agar surface (10 ml per plate).
(§6) The sown plates were let dry (open) under a laminar flow hood for 15 minutes, then the disks were placed on their surface (four each plate), i.e. the adduct and antibiotic according to the two desired concentrations. The prepared plates (five each tests) were overturned and incubated at 37° C. for 16 hours. After this interval, the inhibition halos were produced. The results are shown in Table 1, where F.U. indicates the dosage recommended by Farmacopea Ufficiale Italiana, IX ed., vol. 1

[2] = test system: field Staphylococcus aureus (strain B); experiment: Inhibition halos, diffusion method, strain B; format: cell-based
Source text: as §1, §2, §3, §4, §5, §6

[3] = test system: field Staphylococcus aureus (strain C); experiment: Inhibition halos, diffusion method, strain C; format: cell-based
Source text: as §1, §2, §3, §4, §5, §6

[4] = test system: Staphylococcus aureus ATCC 6538 P (strain A); experiment: Minimum inhibiting concentration (MIC) in vitro, dilutions in liquid medium, strain A; format: cell-based; settings: Mueller-Hinton broth pH=7.4, 37° C. 18-24 hours; for MIC: Staphylococcus aureus, ATCC6538
Experimental: (§7) To produce a bacterial growth, a strain of Staphylococcus aureus ATCC 6538 P (strain A) and two strains of field Staphylococcus aureus (strains B and C) were used. […] A drop of broth (dilution 1:10) was added to all test tubes, which were incubated at 37° C. for 18-24 hours. Then, the test tube with the highest dilution free of any turbidity was considered as the one containing the minimum inhibiting concentration (MIC).

[5] = test system: field Staphylococcus aureus (strain B); experiment: Minimum inhibiting concentration (MIC) in vitro, dilutions in liquid medium, strain B; format: cell-based; settings: Mueller-Hinton broth pH=7.4, 37° C. 18-24 hours; for MIC: Staphylococcus aureus
Experimental: as §7

[6] = test system: field Staphylococcus aureus (strain C); experiment: Minimum inhibiting concentration (MIC) in vitro, dilutions in liquid medium, strain C; format: cell-based; settings: Mueller-Hinton broth pH=7.4, 37° C. 18-24 hours; for MIC: Staphylococcus aureus
Experimental: as §7

[7] = test system: Staphylococcus aureus; experiment: In vivo activity in mice infected with Staphylococcus aureus (ulcerative dermatitis), bacteriologic test; design: species or system albino mice; settings: for Bacteriologic test after 5 days of therapy, negative / Bacteriologic test after 5 days of therapy, positive: number of subjects; for % of recovery: subjects with post-infective clinical symptoms, after 5 days of therapy
Experimental: The antibiotics and the respective adducts were used in solution with distilled water for injectables or with purified water for oral use. Common albino mice (average weight: 28 g), previously infected with Staphylococcus aureus (which is not resistant to the examined antibiotics), that had developed ulcerative dermatitis, with localized abscesses and popodermatitis […] were treated with the prepared solutions every 24 hours for 5 days. After this treatment, a bacteriologic checking through isolation was performed, using pads on the animal skin and inoculating the sample drawn from the […] on the plate.

[8] = test system: S. aureus Smith BT13; experiment: Murine model of Staphylococcus aureus subcutaneous abscess; format: in vivo, swiss mice; settings: for Size scored: abscess size scored 0 to 3 per mouse, group sum; for Total abscesses in 30 mice / Total score (size scored) in 30 mice: cephalosporin, sum of 25, 50, 100 mg/kg groups; for Cured infected mice of 30: parent cephalosporin, 25, 50, 100 mg/kg groups together
Experimental: 200 Male swiss mice were housed in temperature and humidity controlled animal rooms. The body weight on the day of infection was 25 g (SD 1.2, no 10). Culture media Brain Heart Infusion Broth (Difco) (BHI) and Brain Heart Infusion Agar (Merck) (BHIA) were prepared according to the manufacturer instructions and autoclaved for 15 mins at 121° C. S. aureus Smith BT13 was used at infecting organism. It was stored frozen at −80° C. […] For each test article, a stock solution was prepared by dissolving the drug with 5 ml of water for injectables (5 mg/ml drug concentration for cephalosporins and 3 mg/ml for the adducts). Dilutions 1:2 and 1:4 were prepared using the same vehicles. All solutions were prepared immediately before use. […] At 6 h after inoculation, groups of 10 mice were dosed intraperitoneally with 0.5 ml either of one of the antibiotic solutions, while an untreated control group of 10 mice was injected intraperitoneally with 0.5 ml sterile water. […] On the third day after infection, all mice were sacrificed and autopsied. Presence and size of abscesses were recorded. […] The activity of all compounds was compared by the non parametric Mann-Whitney U test. Statistical significance was for p<0.05.

[9] = Solubility in water; format: physicochemical; settings: of water, pH=4.8
[10] = disk dose 0.64 μg (F.U.) (adduct: same total dose)
[11] = disk dose 1.56 μg (F.U.) (adduct: same total dose)
[12] = subjects with post-infective clinical symptoms (YES), treated every 24 hours for 5 days
[13] = disk dose 4 μg (adduct: same total dose), 37° C. 16 hours
[14] = disk dose 8 μg (adduct: same total dose)
[15] = infected subjects without post-infective clinical symptoms (NO)
[16] = disk dose 6 μg (adduct: same total dose)

Compound: Cc1nnc(SCC2=C(C(=O)O)N3C(=O)[C@@H](NC(=O)Cn4cnnn4)[C@H]3SC2)s1 [Cefazolin]
- Halos on strain A [1, 10]: 11.0 mm
- Halos on strain A [1, 11]: 12.2 mm
- Halos on strain B [2, 10]: 8.5 mm
- Halos on strain B [2, 11]: 10.1 mm
- Halos on strain C [3, 10]: 10.1 mm
- Halos on strain C [3, 11]: 10.9 mm
- MIC [4]: 0.5 µg/mL (≈ 1.1 µM)
- MIC [5]: 0.64 µg/mL (≈ 1.41 µM)
- MIC [6]: 0.54 µg/mL (≈ 1.19 µM)
- Bacteriologic test after 5 days of therapy, negative [7, 12]: 15
- Bacteriologic test after 5 days of therapy, positive [7, 12]: 0
- % of recovery [7]: 100%
- Size scored ([8]; cephalosporin 25 mg/kg/dose): 17
- Size scored ([8]; cephalosporin 50 mg/kg/dose): 4
- Size scored ([8]; cephalosporin 100 mg/kg/dose): 0
- Total abscesses in 30 mice [8]: 8 absc
- Total score (size scored) in 30 mice [8]: 21
- Cured infected mice of 30 [8]: 22

Compound: CC1=C(C(=O)O)N2C(=O)[C@@H](NC(=O)[C@H](N)C3=CCC=CC3)[C@H]2SC1 [Cefradin]
- Halos on strain A [1, 10]: 10.0 mm
- Halos on strain A [1, 11]: 12.1 mm
- Halos on strain B [2, 10]: 7.0 mm
- Halos on strain B [2, 11]: 9.0 mm
- Halos on strain C [3, 10]: 9.7 mm
- Halos on strain C [3, 11]: 10.0 mm
- MIC [4]: 4 µg/mL (≈ 11.4 µM)
- MIC [5]: 4.8 µg/mL (≈ 13.7 µM)
- MIC [6]: 4.3 µg/mL (≈ 12.3 µM)
- Bacteriologic test after 5 days of therapy, negative [7, 12]: 15
- Bacteriologic test after 5 days of therapy, positive [7, 12]: 0
- % of recovery [7]: 100%
- solubility [9]: 4000 µg/mL (≈ 11400 µM)

Compound: CC1(C)S[C@@H]2[C@H](NC(=O)[C@H](N)c3ccc(O)cc3)C(=O)N2[C@H]1C(=O)O [Amoxycillin]
- Halos on strain A [1, 13]: 12.0 mm
- Halos on strain A [1, 14]: 13.2 mm
- Halos on strain B [2, 13]: 13.0 mm
- Halos on strain B [2, 14]: 14.0 mm
- Halos on strain C [3, 13]: 9.7 mm
- Halos on strain C [3, 14]: 10.0 mm
- MIC [4]: 0.1 µg/mL (≈ 0.274 µM)
- MIC [5]: 0.2 µg/mL (≈ 0.547 µM)
- MIC [6]: 0.08 µg/mL (≈ 0.219 µM)
- Bacteriologic test after 5 days of therapy, negative [7, 15]: 0
- Bacteriologic test after 5 days of therapy, positive [7, 15]: 0
- Bacteriologic test after 5 days of therapy, negative [7, 12]: 13
- Bacteriologic test after 5 days of therapy, positive [7, 12]: 0
- % of recovery [7]: 100%

Compound: CO/N=C(\C(=O)N[C@@H]1C(=O)N2C(C(=O)O)=C(CSc3nc(=O)c(=O)[nH]n3C)CS[C@H]12)c1csc(N)n1 [Ceftriaxone]
- Size scored ([8]; cephalosporin 25 mg/kg/dose): 17
- Size scored ([8]; cephalosporin 50 mg/kg/dose): 14
- Size scored ([8]; cephalosporin 100 mg/kg/dose): 10
- Total abscesses in 30 mice [8]: 19 absc
- Total score (size scored) in 30 mice [8]: 41
- Cured infected mice of 30 [8]: 11/30

Compound: CO/N=C(\C(=O)N[C@@H]1C(=O)N2C(C(=O)O)=C(COC(C)=O)CS[C@H]12)c1csc(N)n1 [Cefotaxime]
- Size scored ([8]; cephalosporin 25 mg/kg/dose): 11
- Size scored ([8]; cephalosporin 50 mg/kg/dose): 3
- Size scored ([8]; cephalosporin 100 mg/kg/dose): 0
- Total abscesses in 30 mice [8]: 6 absc
- Total score (size scored) in 30 mice [8]: 14
- Cured infected mice of 30 [8]: 24/30

Compound: Gentamicin
- Halos on strain A [1, 13]: 12.1 mm
- Halos on strain A [1, 16]: 13.1 mm
- Halos on strain B [2, 13]: 11.8 mm
- Halos on strain B [2, 16]: 12.0 mm
- Halos on strain C [3, 13]: 12.8 mm
- Halos on strain C [3, 16]: 13.9 mm
- MIC on strain A [4]: 0.125 µg/mL
- MIC on strain B [5]: 0.15 µg/mL
- MIC on strain C [6]: 0.139 µg/mL
- Bacteriologic test after 5 days of therapy, negative [7, 15]: 0
- Bacteriologic test after 5 days of therapy, positive [7, 15]: 0
- Bacteriologic test after 5 days of therapy, negative [7, 12]: 13
- Bacteriologic test after 5 days of therapy, positive [7, 12]: 0
- % of recovery [7]: 100%
